From ChEMBL document CHEMBL4680133, “Novel nitroimidazole derivatives evaluated for their trypanocidal, cytotoxic, and genotoxic activities” (Eur J Med Chem, 2020)

What was measured:
[1] = Toxicity in Salmonella typhimurium YG1024 at 5 to 100 ug/plate after 20 mins by colony counting method; conditions: salmonella enterica subsp. enterica serovar typhimurium, dose 5-100 µg
RAW264.7 [2] = assay: Genotoxicity in mouse RAW264.7 cells assessed as mitotic index at 213 uM measured after 24 hrs by micronucleus test (reference value: 40 to 249); format: toxicity, cell-based; conditions: raw264.7, 24 h
RAW264.7 [3] = assay: Genotoxicity in mouse RAW264.7 cells assessed as mitotic index at 427 uM measured after 24 hrs by micronucleus test (reference value: 40 to 249); format: toxicity, cell-based; conditions: raw264.7, 24 h
RAW264.7 [4] = assay: Genotoxicity in mouse RAW264.7 cells assessed as mitotic index at 2135 uM measured after 24 hrs by micronucleus test (reference value: 40 to 249); format: toxicity, cell-based; conditions: raw264.7, 24 h
RAW264.7 [5] = assay: Genotoxicity in mouse RAW264.7 cells assessed as mitotic index at 4270 uM measured after 24 hrs by micronucleus test (reference value: 40 to 249); format: toxicity, cell-based; conditions: raw264.7, 24 h
RAW264.7 [6] = assay: Genotoxicity in mouse RAW264.7 cells assessed as number of micronucleated cells at 4270 uM measured after 24 hrs by micronucleus test (reference value: 12 to 15); format: toxicity, cell-based; conditions: raw264.7, 24 h
[7] = Genotoxicity in mouse RAW264.7 cells assessed as survival at 213 uM measured after 24 hrs by micronucleus test (reference value: 100%); format: toxicity, cell-based; conditions: read-out: Survival
[8] = Genotoxicity in mouse RAW264.7 cells assessed as survival at 427 uM measured after 24 hrs by micronucleus test (reference value: 100%); format: toxicity, cell-based; conditions: read-out: Survival
[9] = Genotoxicity in mouse RAW264.7 cells assessed as survival at 4270 uM measured after 24 hrs by micronucleus test (reference value: 100%); format: toxicity, cell-based; conditions: read-out: Survival
HepG2 [10] = assay: Genotoxicity in human HepG2 assessed as mitotic index at 213 uM measured after 24 hrs by micronucleus test (reference value: 61 to 108); format: toxicity, cell-based; conditions: hepg2, 24 h
HepG2 [11] = assay: Genotoxicity in human HepG2 assessed as mitotic index at 427 uM measured after 24 hrs by micronucleus test (reference value: 61 to 108); format: toxicity, cell-based; conditions: hepg2, 24 h
HepG2 [12] = assay: Genotoxicity in human HepG2 assessed as mitotic index at 4270 uM measured after 24 hrs by micronucleus test (reference value: 61 to 108); format: toxicity, cell-based; conditions: hepg2, 24 h
HepG2 [13] = assay: Genotoxicity in human HepG2 assessed as number of micronucleated cells at 213 uM measured after 24 hrs by micronucleus test (reference value: 14 to 18); format: toxicity, cell-based; conditions: hepg2, 24 h
HepG2 [14] = assay: Genotoxicity in human HepG2 assessed as number of micronucleated cells at 427 uM measured after 24 hrs by micronucleus test (reference value: 14 to 18); format: toxicity, cell-based; conditions: hepg2, 24 h
HepG2 [15] = assay: Genotoxicity in human HepG2 assessed as number of micronucleated cells at 2135 uM measured after 24 hrs by micronucleus test (reference value: 14 to 18); format: toxicity, cell-based; conditions: hepg2, 24 h
[16] = Genotoxicity in human HepG2 assessed as survival at 427 uM measured after 24 hrs by micronucleus test (reference value: 100%); format: toxicity, cell-based; conditions: HepG2 cells, read-out: Survival
[17] = Genotoxicity in human HepG2 assessed as survival at 2135 uM measured after 24 hrs by micronucleus test (reference value: 100%); format: toxicity, cell-based; conditions: HepG2 cells, read-out: Survival
[18] = Genotoxicity in human HepG2 assessed as survival at 4270 uM measured after 24 hrs by micronucleus test (reference value: 100%); format: toxicity, cell-based; conditions: HepG2 cells, read-out: Survival
HepG2 [19] = assay: Cytotoxicity against human HepG2 cells assessed as induction of membrane damage at 17.5 to 350 uM measured after 24 hrs by LDH assay; format: cell-based; conditions: hepg2, 24 h, dose 17.5-350 µM
[20] = Toxicity in Salmonella typhimurium TA102 at 100 ug/plate measured after 20 mins in absence of S9 fraction by colony counting method; conditions: salmonella enterica subsp. enterica serovar typhimurium, dose 100 µg
RAW264.7 [21] = assay: Genotoxicity in mouse RAW264.7 cells assessed as mitotic index at 175 uM measured after 24 hrs by micronucleus test (reference value: 40 to 249); format: toxicity, cell-based; conditions: raw264.7, 24 h
RAW264.7 [22] = assay: Genotoxicity in mouse RAW264.7 cells assessed as mitotic index at 350 uM measured after 24 hrs by micronucleus test (reference value: 40 to 249); format: toxicity, cell-based; conditions: raw264.7, 24 h
RAW264.7 [23] = assay: Genotoxicity in mouse RAW264.7 cells assessed as mitotic index at 1750 uM measured after 24 hrs by micronucleus test (reference value: 40 to 249); format: toxicity, cell-based; conditions: raw264.7, 24 h
RAW264.7 [24] = assay: Genotoxicity in mouse RAW264.7 cells assessed as mitotic index at 3500 uM measured after 24 hrs by micronucleus test (reference value: 40 to 249); format: toxicity, cell-based; conditions: raw264.7, 24 h
RAW264.7 [25] = assay: Genotoxicity in mouse RAW264.7 cells assessed as number of micronucleated cells at 350 uM measured after 24 hrs by micronucleus test (reference value: 12 to 15); format: toxicity, cell-based; conditions: raw264.7, 24 h
RAW264.7 [26] = assay: Genotoxicity in mouse RAW264.7 cells assessed as number of micronucleated cells at 1750 uM measured after 24 hrs by micronucleus test (reference value: 12 to 15); format: toxicity, cell-based; conditions: raw264.7, 24 h
RAW264.7 [27] = assay: Genotoxicity in mouse RAW264.7 cells assessed as number of micronucleated cells at 3500 uM measured after 24 hrs by micronucleus test (reference value: 12 to 15); format: toxicity, cell-based; conditions: raw264.7, 24 h
[28] = Genotoxicity in mouse RAW264.7 cells assessed as survival at 175 uM measured after 24 hrs by micronucleus test (reference value: 100%); format: toxicity, cell-based; conditions: read-out: Survival
[29] = Genotoxicity in mouse RAW264.7 cells assessed as survival at 1750 uM measured after 24 hrs by micronucleus test (reference value: 100%); format: toxicity, cell-based; conditions: read-out: Survival
[30] = Genotoxicity in mouse RAW264.7 cells assessed as survival at 3500 uM measured after 24 hrs by micronucleus test (reference value: 100%); format: toxicity, cell-based; conditions: read-out: Survival
HepG2 [31] = assay: Genotoxicity in human HepG2 assessed as mitotic index at 175 uM measured after 24 hrs by micronucleus test (reference value: 61 to 108); format: toxicity, cell-based; conditions: hepg2, 24 h
HepG2 [32] = assay: Genotoxicity in human HepG2 assessed as mitotic index at 350 uM measured after 24 hrs by micronucleus test (reference value: 61 to 108); format: toxicity, cell-based; conditions: hepg2, 24 h
HepG2 [33] = assay: Genotoxicity in human HepG2 assessed as mitotic index at 1750 uM measured after 24 hrs by micronucleus test (reference value: 61 to 108); format: toxicity, cell-based; conditions: hepg2, 24 h
HepG2 [34] = assay: Genotoxicity in human HepG2 assessed as mitotic index at 3500 uM measured after 24 hrs by micronucleus test (reference value: 61 to 108); format: toxicity, cell-based; conditions: hepg2, 24 h
HepG2 [35] = assay: Genotoxicity in human HepG2 assessed as number of micronucleated cells at 175 uM measured after 24 hrs by micronucleus test (reference value: 14 to 18); format: toxicity, cell-based; conditions: hepg2, 24 h
HepG2 [36] = assay: Genotoxicity in human HepG2 assessed as number of micronucleated cells at 1750 uM measured after 24 hrs by micronucleus test (reference value: 14 to 18); format: toxicity, cell-based; conditions: hepg2, 24 h
[37] = Genotoxicity in human HepG2 assessed as survival at 175 uM measured after 24 hrs by micronucleus test (reference value: 100%); format: toxicity, cell-based; conditions: HepG2 cells, read-out: Survival
[38] = Genotoxicity in human HepG2 assessed as survival at 1750 uM measured after 24 hrs by micronucleus test (reference value: 100%); format: toxicity, cell-based; conditions: HepG2 cells, read-out: Survival
[39] = Genotoxicity in human HepG2 assessed as survival at 3500 uM measured after 24 hrs by micronucleus test (reference value: 100%); format: toxicity, cell-based; conditions: HepG2 cells, read-out: Survival

Q: With `Cn1cnc([N+](=O)[O-])c1-n1cc(C2CC2)nn1` as the compound, how does the Activity [1] read?
A: The Activity was “Non-Toxic”.

Q: What about the Activity_index (RAW264.7 [2]) of the same compound?
A: Its Activity_index is 30.

Q: What about the Activity_index (RAW264.7 [3]) of the same compound?
A: The Activity_index was 34.

Q: And the Activity_index (RAW264.7 [4])?
A: The Activity_index was 37.

Q: What about the Activity_index (RAW264.7 [5]) of the same compound?
A: Its Activity_index is 36.

Q: And the Activity (RAW264.7 [6])?
A: The Activity was 20.

Q: What about the viability at 24 h, 213 µM [7] of the same compound?
A: Its viability at 24 h, 213 µM is 99%.

Q: And the viability at 24 h, 427 µM [8]?
A: Its viability at 24 h, 427 µM is 99%.

Q: What about the viability at 24 h, 4270 µM [9] of the same compound?
A: Its viability at 24 h, 4270 µM is 94%.

Q: And the Activity_index (HepG2 [10])?
A: The Activity_index was 97.

Q: What about the Activity_index (HepG2 [11]) of the same compound?
A: Its Activity_index is 106.

Q: What about the Activity_index (HepG2 [12]) of the same compound?
A: The Activity_index was 124.

Q: And the Activity (HepG2 [13])?
A: Its Activity is 17.

Q: And the Activity (HepG2 [14])?
A: Its Activity is 17.

Q: And the Activity (HepG2 [15])?
A: Its Activity is 19.

Q: What about the viability at 24 h, 427 µM [16] of the same compound?
A: Its viability at 24 h, 427 µM is 99%.

Q: And the viability at 24 h, 2135 µM [17]?
A: The viability at 24 h, 2135 µM was 95%.

Q: What about the viability at 24 h, 4270 µM [18] of the same compound?
A: Its viability at 24 h, 4270 µM is 91%.

Q: What does the source list for `CCCCCc1ccc(-c2cn(-c3c([N+](=O)[O-])ncn3C)nn2)cc1`?
A: Activity (HepG2 [19]): Toxic; Activity [20]: Toxic; Activity_index (RAW264.7 [21]): 245; Activity_index (RAW264.7 [22]): 223; Activity_index (RAW264.7 [23]): 166; Activity_index (RAW264.7 [24]): 115; Activity (RAW264.7 [25]): 13; Activity (RAW264.7 [26]): 23; Activity (RAW264.7 [27]): 39; viability at 24 h, 175 µM [28]: 99%; viability at 24 h, 1750 µM [29]: 85%; viability at 24 h, 3500 µM [30]: 71%; Activity_index (HepG2 [31]): 111; Activity_index (HepG2 [32]): 91; Activity_index (HepG2 [33]): 59; Activity_index (HepG2 [34]): 53; Activity (HepG2 [35]): 14; Activity (HepG2 [36]): 35; viability at 24 h, 175 µM [37]: 99%; viability at 24 h, 1750 µM [38]: 80%; viability at 24 h, 3500 µM [39]: 64%
